From patent US7528150B2, “Urea derivatives having vanilloid receptor antagonist activity” (Glaxo Group Limited, priority 2003, dated 2009)

target: T1, human VR1 (Homo sapiens, UniProt Q8NER1); experiment: FLIPR based calcium assay, antagonism of capsaicin response in 1321N1 cells stably expressing human VR1; format: cell-based; details: transfected astrocytoma 1321N1 cells expressing human VR1; capsaicin as agonist; pKb generated from IC50 using the Cheng-Prusoff equation
T1 construct: expressed in transfected cells; host or cells: astrocytoma 1321N1 cells, stably transfected
Procedure: The screen used for the compounds of this invention was based upon a FLIPR based calcium assay, similar to that described by Smart et al. (British Journal of Pharmacology, 2000, 129, 227-230). Transfected astrocytoma 1321N1 cells, stably expressing human VR1, were seeded into FLIPR plates at 25,000 cells/well (96-well plate) and cultured overnight.
The cells were subsequently loaded in medium containing 4 μM Fluo-3 AM (Molecular Probes) for 2 h, at room temperature, in the dark. The plates were then washed 4 times with Tyrode containing 1.5 mM calcium, without probenecid. The cells were pre-incubated with compound or buffer control at room temperature for 30 min. Capsaicin (Sigma) was then added to the cells. Compounds having antagonist activity against the human VR1 were identified by detecting differences in fluorescence when measured after capsaicin addition, compared with no compound buffer controls. Thus, for example, in the buffer control capsaicin addition results in an increase in intracellular calcium concentration resulting in fluorescence. A compound having antagonist activity blocks the capsaicin binding to the receptor, there is no signalling and therefore no increase in intracellular calcium levels and consequently lower fluorescence. pKb values are generated from the IC50 values using the Cheng-Prusoff equation.

T1 sequence (Q8NER1 whole entry): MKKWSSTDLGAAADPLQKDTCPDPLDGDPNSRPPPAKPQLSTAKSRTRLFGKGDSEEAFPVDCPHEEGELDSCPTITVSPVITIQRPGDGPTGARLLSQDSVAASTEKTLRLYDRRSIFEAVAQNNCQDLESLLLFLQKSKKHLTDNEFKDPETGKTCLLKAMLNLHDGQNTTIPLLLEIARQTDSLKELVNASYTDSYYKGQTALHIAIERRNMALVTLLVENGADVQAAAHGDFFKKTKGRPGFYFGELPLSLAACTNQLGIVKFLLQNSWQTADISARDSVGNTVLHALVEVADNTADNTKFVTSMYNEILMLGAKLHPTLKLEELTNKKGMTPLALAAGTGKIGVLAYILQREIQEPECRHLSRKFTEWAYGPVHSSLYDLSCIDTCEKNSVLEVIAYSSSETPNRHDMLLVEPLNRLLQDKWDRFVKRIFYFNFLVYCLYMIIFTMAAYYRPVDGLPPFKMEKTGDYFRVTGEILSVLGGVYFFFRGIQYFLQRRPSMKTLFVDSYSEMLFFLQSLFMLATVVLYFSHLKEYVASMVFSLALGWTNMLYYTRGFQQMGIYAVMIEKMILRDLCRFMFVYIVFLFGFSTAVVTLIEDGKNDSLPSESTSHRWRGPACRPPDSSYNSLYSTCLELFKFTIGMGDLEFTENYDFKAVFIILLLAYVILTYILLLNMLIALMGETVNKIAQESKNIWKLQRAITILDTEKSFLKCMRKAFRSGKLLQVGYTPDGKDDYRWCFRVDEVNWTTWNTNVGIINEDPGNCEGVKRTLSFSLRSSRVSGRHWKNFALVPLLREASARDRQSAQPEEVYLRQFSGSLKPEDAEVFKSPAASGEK

| Kb [nM] | SMILES |
| --- | --- |
| < 100 | Cc1cc2c(NC(=O)N[C@@H]3CCN(Cc4cccc(Cl)c4)C3)cccc2cn1 [Example 14] |
| < 100 | Cc1cc2c(NC(=O)N[C@@H]3CCN(Cc4cccc(C(F)(F)F)c4)C3)cccc2cn1 [Example 16] |
| < 100 | Cc1cc2c(NC(=O)N[C@@H]3CCN(Cc4ccc(C(F)(F)F)cc4)C3)cccc2cn1 [Example 17] |
| < 100 | Cc1nccc2c(NC(=O)NC3CN(Cc4ccccc4C(F)(F)F)C3)cccc12 [Example 22] |
